Results from the supplement of paper PMC13380429.

Legend:
[1] = system: A549-ACE2 infected with SARS-CoV-2; assay: cell count relative to DMSO; higher = less toxic; details: 24 h
[2] = system: Caco-2; assay: cell viability relative to DMSO; higher = less toxic; details: 72 h
[3] = system: Calu-3; assay: as above; details: 72 h
[4] = system: HepG2; assay: as above; details: 72 h
[5] = system: U2OS; assay: as above; details: 72 h
[6] = system: Vero E6; assay: as above; details: 72 h
[7] = system: A549-ACE2 infected with SARS-CoV-2; assay: SARS-CoV-2 infection rate relative to DMSO; higher = more infection; details: 24 h
[8] = system: A549-ACE2; assay: phospholipidosis EC50; higher = less potent phospholipidosis inducer
[9] = system: A549-ACE2; assay: drug-induced phospholipidosis relative to tamoxifen; higher = more phospholipidosis
[10] = system: A549-ACE2 infected with SARS-CoV-2; assay: morphology score (similarity to uninfected cells); higher = more like uninfected cells; details: 24 h
[11] = system: U2OS; assay: relative viability EC50 (midpoint between 100% and the lowest measured viability); higher = less toxic; details: 72 h
[12] = system: Vero E6; assay: as above; details: 72 h
[13] = system: Caco-2; assay: drug sensitivity score (DSS) for viability; higher = more toxic; extreme values may be limits of the assay; details: 72 h
[14] = system: Calu-3; assay: as above; details: 72 h
[15] = system: HepG2; assay: as above; details: 72 h
[16] = system: U2OS; assay: as above; details: 72 h
[17] = system: Vero E6; assay: as above; details: 72 h

NCCC(Oc1ccc(C(F)(F)F)cc1)c1ccccc1 (stereo not given) [norfluoxetine]
Details | SARS-CoV-2 infection rate [%] | cell count [%] | cell viability [%] | morphology score | phospholipidosis EC50 [µM]
[1], 0.3 µM | – | 99 | – | – | –
[1], 3 µM | – | 103 | – | – | –
[1], 10 µM | – | 128 | – | – | –
[1], 30 µM | – | 73 | – | – | –
[2], 1 nM | – | – | 90 | – | –
[2], 10 nM | – | – | 104 | – | –
[2], 100 nM | – | – | 104 | – | –
[2], 1000 nM | – | – | 103 | – | –
[2], 10000 nM | – | – | 63.3 | – | –
[3], 1 nM | – | – | 96.4 | – | –
[3], 10 nM | – | – | 108 | – | –
[3], 100 nM | – | – | 100 | – | –
[3], 1000 nM | – | – | 93.6 | – | –
[3], 10000 nM | – | – | 54.3 | – | –
[4], 1 nM | – | – | 93.6 | – | –
[4], 10 nM | – | – | 92.5 | – | –
[4], 100 nM | – | – | 107 | – | –
[4], 1000 nM | – | – | 73.7 | – | –
[4], 10000 nM | – | – | 64.7 | – | –
[5], 1 nM | – | – | 96.9 | – | –
[5], 10 nM | – | – | 102 | – | –
[5], 100 nM | – | – | 108 | – | –
[5], 1000 nM | – | – | 102 | – | –
[5], 10000 nM | – | – | 90.9 | – | –
[6], 1 nM | – | – | 106 | – | –
[6], 10 nM | – | – | 94.5 | – | –
[6], 100 nM | – | – | 99.8 | – | –
[6], 1000 nM | – | – | 95.7 | – | –
[6], 10000 nM | – | – | 84.4 | – | –
[7], 0.3 µM | 99 | – | – | – | –
[7], 3 µM | 84 | – | – | – | –
[7], 10 µM | 17 | – | – | – | –
[7], 30 µM | 46 | – | – | – | –
[8], 24 h | – | – | – | – | 6.78
[8], 48 h | – | – | – | – | 5.96
[8], 72 h | – | – | – | – | 10.7
[10], 0.3 µM | – | – | – | 0.13 | –
[10], 3 µM | – | – | – | 0.26 | –
[10], 10 µM | – | – | – | 0.86 | –
[10], 30 µM | – | – | – | 0 | –

drug-induced phospholipidosis [%], [9]
Details | 0.3 µM | 0.833333 µM | 3.33333 µM | 6.66667 µM | 10 µM | 30 µM
24 h | -1.03 | -3.68 | 19.4 | 73 | 85.6 | 130
48 h | 1.11 | -2.85 | 18.7 | 79.1 | 101 | 132
72 h | 2.19 | -3.51 | 8.94 | 50.5 | 78.9 | 153

Details | drug sensitivity score | relative viability EC50 [µM]
[11] | – | > 10
[12] | – | > 10
[13] | 1.5 | –
[14] | 3.4 | –
[15] | 4.7 | –
[16] | 0 | –
[17] | 0.7 | –
